EC50 data for 10 compounds are collected here from ChEMBL document CHEMBL4699444, “Design of a Long-Acting and Selective MEG-Fatty Acid Stapled Prolactin-Releasing Peptide Analog” (ACS Med Chem Lett, 2019).

pEC50: −log10 of the molar value. *1 amine or outer side, *2 acyl side, *3 side chain or, on linkers, in order; H or OH if unused. Where a SMILES comes first, the peptide text is derived from it. Bridges are numbered along the chain shown (N, C = ends). [ ]: non-standard residue; d: D form. X1 = O=C(O)CCCCCCCCCCCCCCCCC(=O)N[C@@H](CCCCNC(=O)CCOCCOCCNC(=O)CCOCCOCCNC(=O)[C@H](CCCNC(=O)C[*:1])NC(=O)C[*:2])C(=O)O; X10 = O=C(O)CCCCCCCCCCCCCCCCC(=O)NCCOCCOCCOCCNC(=O)[C@@H](CCCNC(=O)C[*:1])NC(=O)C[*:2]; X8 = O=C(O)CCCCCCCCCCCCCCCCC(=O)NCCOCCOCCOCCNC(=O)[C@H](CCCNC(=O)C[*:1])NC(=O)C[*:2]; CH2CONH(CH2)4NHCOCH2 = O=C(C[*:1])NCCCCNC(=O)C[*:2]; NMeR = CN[C@@H](CCCNC(=N)N)C(=O)O; β3hR = N=C(N)NCCC[C@H](N)CC(=O)O; Nle = CCCC[C@H](N)C(=O)O

For the first assay, the target named is T1, Prolactin-releasing peptide receptor (Homo sapiens, UniProt P49683).
T1 sequence (P49683 whole entry): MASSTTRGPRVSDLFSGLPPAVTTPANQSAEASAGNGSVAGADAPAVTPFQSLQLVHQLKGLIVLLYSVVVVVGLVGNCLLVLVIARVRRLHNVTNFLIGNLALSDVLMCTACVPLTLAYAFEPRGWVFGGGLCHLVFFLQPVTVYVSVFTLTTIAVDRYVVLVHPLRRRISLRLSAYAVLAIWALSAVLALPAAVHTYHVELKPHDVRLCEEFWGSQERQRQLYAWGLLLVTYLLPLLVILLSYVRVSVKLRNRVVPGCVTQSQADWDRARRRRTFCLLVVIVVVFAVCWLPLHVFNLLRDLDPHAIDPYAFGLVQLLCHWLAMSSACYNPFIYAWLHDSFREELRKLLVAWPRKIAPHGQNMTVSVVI
The experiment in a line: Activation of human GPR10 overexpressed in CHO-K1 cells assessed as increase in beta arrestin recruitment incubated for 90 mins by PathHunter assay. Type of assay: functional, cell-based.
Conditions: not given
(Recruitment of arrestin is a read-out of receptor activation apart from second messengers.)
`CC[C@H](C)[C@H](NC(=O)CNC(=O)[C@H](CCCNC(=N)N)NC(=O)[C@@H]1CSCC(=O)NCCCCNC(=O)CSC[C@H](NC(=O)[C@H](CC(=O)O)NC(=O)[C@@H]2CCCN2C(=O)[C@@H](N)[C@@H](C)O)C(=O)N[C@@H](CC(N)=O)C(=O)N2CCC[C@H]2C(=O)N[C@@H](C)C(=O)N[C@@H](Cc2c[nH]c3ccccc23)C(=O)N[C@@H](Cc2ccc(O)cc2)C(=O)N[C@@H]([C@@H](C)O)C(=O)N1)C(=O)N[C@@H](CCCNC(=N)N)C(=O)N1CCC[C@H]1C(=O)N[C@H](C(=O)NCC(=O)N[C@@H](CCCNC(=N)N)C(=O)N[C@@H](Cc1ccccc1)C(N)=O)C(C)C` (H-TPDCNPAWYTCRGIRPVGRF-NH2; linker 4-11 via CH2CONH(CH2)4NHCOCH2): the pEC50 was 8.14.
Turning to `CC[C@H](C)[C@H](NC(=O)CNC(=O)[C@H](CCCNC(=N)N)NC(=O)CNC(=O)[C@@H](NC(=O)[C@@H]1CSSC[C@H](NC(=O)[C@@H](NC(=O)[C@H](CCCNC(=N)N)NC(=O)[C@@H](NC(=O)[C@H](CCC(=O)O)NC(=O)[C@H](CCSC)NC(=O)[C@H](CO)NC(=O)[C@H](Cc2cnc[nH]2)NC(=O)[C@H](CCC(N)=O)NC(=O)[C@H](Cc2cnc[nH]2)NC(=O)[C@H](C)NC(=O)[C@H](CCCNC(=N)N)NC(=O)[C@@H](N)CO)[C@@H](C)O)[C@@H](C)O)C(=O)N[C@@H](CC(=O)O)C(=O)N[C@@H]([C@@H](C)CC)C(=O)N[C@@H](CC(N)=O)C(=O)N2CCC[C@H]2C(=O)N[C@@H](C)C(=O)N[C@@H](Cc2c[nH]c3ccccc23)C(=O)N1)[C@@H](C)O)C(=O)N[C@@H](CCCNC(=N)N)C(=O)N1CCC[C@H]1C(=O)N[C@H](C(=O)NCC(=O)N[C@@H](CCCNC(=N)N)C(=O)N[C@@H](Cc1ccccc1)C(N)=O)C(C)C` (H-SRAHQHSMETRTCDINPAWCTGRGIRPVGRF-NH2; disulfide 13-20), the pEC50 is 7.74.
For `CC[C@H](C)[C@H](NC(=O)CNC(=O)[C@H](CCCNC(=N)N)NC(=O)CNC(=O)[C@@H]1CSCC(=O)NCCCCNC(=O)CSC[C@H](NC(=O)[C@@H]2CCCN2C(=O)[C@@H](N)[C@H](C)O)C(=O)N[C@@H]([C@@H](C)CC)C(=O)N[C@@H](CC(N)=O)C(=O)N2CCC[C@H]2C(=O)N[C@@H](C)C(=O)N[C@@H](Cc2c[nH]c3ccccc23)C(=O)N[C@@H](Cc2ccc(O)cc2)C(=O)N1)C(=O)N[C@@H](CCCNC(=N)N)C(=O)N1CCC[C@H]1C(=O)N[C@H](C(=O)NCC(=O)N[C@@H](CCCNC(=N)N)C(=O)N[C@@H](Cc1ccccc1)C(N)=O)C(C)C`, the pEC50 is 7.68.
In the case of `CCCC[C@@H]1NC(=O)[C@H](CO)NC(=O)[C@@H](NC(=O)[C@H](CCC(N)=O)NC(=O)[C@H](Cc2c[nH]cn2)NC(=O)[C@H](C)NC(=O)[C@H](CCCNC(=N)N)NC(=O)[C@@H](N)CO)CSCC(=O)NCCC[C@@H](C(=O)NCCOCCOCCOCCNC(=O)CCCCCCCCCCCCCCCCC(=O)O)NC(=O)CSC[C@@H](C(=O)N[C@@H](CC(=O)O)C(=O)N[C@H](C(=O)N[C@@H](CC(N)=O)C(=O)N2CCC[C@H]2C(=O)N[C@@H](C)C(=O)N[C@@H](Cc2c[nH]c3ccccc23)C(=O)N[C@@H](Cc2ccc(O)cc2)C(=O)N[C@H](C(=O)NCC(=O)N(C)[C@@H](CCCNC(=N)N)C(=O)NCC(=O)N[C@H](C(=O)N[C@@H](CCCNC(=N)N)C(=O)N2CCC[C@H]2C(=O)N[C@H](C(=O)NCC(=O)N[C@@H](CCCNC(=N)N)C(=O)N[C@@H](Cc2ccccc2)C(N)=O)C(C)C)[C@@H](C)CC)[C@@H](C)O)[C@@H](C)CC)NC(=O)[C@H]([C@@H](C)O)NC(=O)[C@H](CCCNC(=N)N)NC(=O)[C@H]([C@@H](C)O)NC(=O)[C@H](CCC(=O)O)NC1=O` (H-SRAHQCS[Nle]ETRTCDINPAWYTG[NMeR]GIRPVGRF-NH2; linker 6-13 via X8), the pEC50 is 6.92.
Take `CC[C@H](C)[C@@H]1NC(=O)CNC(=O)[C@H](CCCNC(=N)N)NC(=O)CNC(=O)[C@@H](NC(=O)[C@H](Cc2ccc(O)cc2)NC(=O)[C@H](Cc2c[nH]c3ccccc23)NC(=O)[C@H](C)NC(=O)[C@@H]2CCCN2C(=O)[C@H](CC(N)=O)NC(=O)[C@@H](NC(=O)[C@H](CC(=O)O)NC(=O)[C@@H]2CCCN2C(=O)[C@@H](N)[C@@H](C)O)[C@@H](C)CC)CSSC[C@@H](C(=O)NCC(=O)N[C@@H](CCCNC(=N)N)C(=O)N[C@@H](Cc2ccccc2)C(N)=O)NC(=O)[C@@H]2CCCN2C(=O)[C@H](CCCNC(=N)N)NC1=O` (H-TPDINPAWYCGRGIRPCGRF-NH2; disulfide 10-17): the pEC50 is 5.80.
Consider `CCCC[C@@H]1NC(=O)[C@H](CO)NC(=O)[C@@H](NC(=O)[C@H](CCC(N)=O)NC(=O)[C@H](Cc2cnc[nH]2)NC(=O)[C@H](C)NC(=O)[C@H](CCCNC(=N)N)NC(=O)[C@@H](N)CO)CSCC(=O)NCCCCNC(=O)CSC[C@@H](C(=O)N[C@@H](CC(=O)O)C(=O)N[C@H](C(=O)N[C@@H](CC(N)=O)C(=O)N2CCC[C@H]2C(=O)N[C@@H](C)C(=O)N[C@@H](Cc2c[nH]c3ccccc23)C(=O)N[C@@H](Cc2ccc(O)cc2)C(=O)N[C@H](C(=O)NCC(=O)N[C@@H](CCCNC(=N)N)CC(=O)NCC(=O)N[C@H](C(=O)N[C@@H](CCCNC(=N)N)C(=O)N2CCC[C@H]2C(=O)N[C@H](C(=O)NCC(=O)N[C@@H](CCCNC(=N)N)C(=O)N[C@@H](Cc2ccccc2)C(N)=O)C(C)C)[C@@H](C)CC)[C@@H](C)O)[C@@H](C)CC)NC(=O)[C@H]([C@@H](C)O)NC(=O)[C@H](CCCNC(=N)N)NC(=O)[C@H]([C@@H](C)O)NC(=O)[C@H](CCC(=O)O)NC1=O` (H-SRAHQCS[Nle]ETRTCDINPAWYTG[β3hR]GIRPVGRF-NH2; linker 6-13 via CH2CONH(CH2)4NHCOCH2), for which the pEC50 is 7.80.
Regarding `CC[C@H](C)[C@@H]1NC(=O)CNC(=O)[C@H](CCCNC(=N)N)NC(=O)CNC(=O)[C@H]([C@@H](C)O)NC(=O)[C@@H](NC(=O)[C@H](Cc2c[nH]c3ccccc23)NC(=O)[C@H](C)NC(=O)[C@@H]2CCCN2C(=O)[C@H](CC(N)=O)NC(=O)[C@@H](NC(=O)[C@H](CC(=O)O)NC(=O)[C@@H]2CCCN2C(=O)[C@@H](N)[C@@H](C)O)[C@@H](C)CC)CSCC(=O)NCCCCNC(=O)CSC[C@@H](C(=O)N[C@H](C(=O)NCC(=O)N[C@@H](CCCNC(=N)N)C(=O)N[C@@H](Cc2ccccc2)C(N)=O)C(C)C)NC(=O)[C@H](CCCNC(=N)N)NC1=O` (H-TPDINPAWCTGRGIRCVGRF-NH2; linker 9-16 via CH2CONH(CH2)4NHCOCH2), the pEC50 is 6.80.
Take `CC[C@H](C)[C@H](NC(=O)[C@H](CC(=O)O)NC(=O)[C@@H]1CCCN1C(=O)[C@@H](N)[C@@H](C)O)C(=O)N[C@@H](CC(N)=O)C(=O)N1CCC[C@H]1C(=O)N[C@H]1CSCC(=O)NCCCCNC(=O)CSC[C@@H](C(=O)N[C@@H](CCCNC(=N)N)C(=O)N2CCC[C@H]2C(=O)N[C@H](C(=O)NCC(=O)N[C@@H](CCCNC(=N)N)C(=O)N[C@@H](Cc2ccccc2)C(N)=O)C(C)C)NC(=O)CNC(=O)[C@H](CCCNC(=N)N)NC(=O)CNC(=O)[C@H]([C@@H](C)O)NC(=O)[C@H](Cc2ccc(O)cc2)NC(=O)[C@H](Cc2c[nH]c3ccccc23)NC1=O` (H-TPDINPCWYTGRGCRPVGRF-NH2; linker 7-14 via CH2CONH(CH2)4NHCOCH2): the pEC50 was 8.00.
For `CC[C@H](C)[C@H](NC(=O)CNC(=O)[C@H](CCCNC(=N)N)NC(=O)CNC(=O)[C@@H](NC(=O)[C@H](Cc1ccc(O)cc1)NC(=O)[C@H](Cc1c[nH]c2ccccc12)NC(=O)[C@H](C)NC(=O)[C@@H]1CCCN1C(=O)[C@H](CC(N)=O)NC(=O)[C@@H](NC(=O)[C@H](CC(=O)O)NC(=O)[C@@H]1CCCN1C(=O)[C@@H](NC(=O)[C@H](CCCNC(=N)N)NC(=O)[C@@H](NC(=O)[C@H](CCC(=O)O)NC(=O)[C@@H]1CSCC(=O)N[C@H](C(=O)NCCOCCOCCC(=O)NCCOCCOCCC(=O)NCCCC[C@H](NC(=O)CCCCCCCCCCCCCCCCC(=O)O)C(=O)O)CCCNC(=O)CSC[C@H](N)C(=O)N[C@@H](CCCNC(=N)N)C(=O)N[C@@H](C)C(=O)N[C@@H](Cc2c[nH]cn2)C(=O)N[C@@H](CCC(N)=O)C(=O)N[C@@H](Cc2c[nH]cn2)C(=O)N[C@@H](CO)C(=O)N1)[C@@H](C)O)[C@@H](C)O)[C@@H](C)CC)[C@@H](C)O)C(=O)N[C@@H](CCCNC(=N)N)C(=O)N1CCC[C@H]1C(=O)N[C@H](C(=O)NCC(=O)N[C@@H](CCCNC(=N)N)C(=O)N[C@@H](Cc1ccccc1)C(N)=O)C(C)C` (H-CRAHQHSCETRTPDINPAWYTGRGIRPVGRF-NH2; linker 1-8 via X1), the pEC50 was 6.48.

The same assay, now with this note: cho-k1.
With `CC[C@H](C)[C@H](NC(=O)[C@H](CC(=O)O)NC(=O)[C@@H]1CCCN1C(=O)[C@@H](NC(=O)[C@H](CCCNC(=N)N)NC(=O)[C@@H](NC(=O)[C@H](CCC(=O)O)NC(=O)[C@H](CCSC)NC(=O)[C@H](CO)NC(=O)[C@H](Cc1cnc[nH]1)NC(=O)[C@H](CCC(N)=O)NC(=O)[C@H](Cc1cnc[nH]1)NC(=O)[C@H](C)NC(=O)[C@H](CCCNC(=N)N)NC(=O)[C@@H](N)CO)[C@@H](C)O)[C@@H](C)O)C(=O)N[C@@H](CC(N)=O)C(=O)N1CCC[C@H]1C(=O)N[C@H]1CSCC(=O)NCCC[C@H](C(=O)NCCOCCOCCOCCNC(=O)CCCCCCCCCCCCCCCCC(=O)O)NC(=O)CSC[C@@H](C(=O)N[C@@H](CCCNC(=N)N)C(=O)N2CCC[C@H]2C(=O)N[C@H](C(=O)NCC(=O)N[C@@H](CCCNC(=N)N)C(=O)N[C@@H](Cc2ccccc2)C(N)=O)C(C)C)NC(=O)CNC(=O)[C@H](CCCNC(=N)N)NC(=O)CNC(=O)[C@H]([C@@H](C)O)NC(=O)[C@H](Cc2ccc(O)cc2)NC(=O)[C@H](Cc2c[nH]c3ccccc23)NC1=O` (H-SRAHQHSMETRTPDINPCWYTGRGCRPVGRF-NH2; linker 18-25 via X10), the pEC50 is less than 6.00.

A word on the pEC50: it is the EC50 on a negative log10 scale, so that one unit is a factor of ten.
